Data published in patent publication US10738082B2, “One-bead-two-compound macrocyclic library and methods of preparation and use” (University of South Florida, priority 2017, dated 2020).

Tests used:
cell invasion = assay: Cell invasion assay; type: cell-based; settings: 10 μM, 24 hours
Method: Invasion and migration assays were performed as described before.

cell migration = settings: 10 μM, 24 hours
Method: Invasion and migration assays were performed as described before. Cells were plated into the top chambers and treated with either vehicle or 10 μM C-84. 24 hours later cells in top chamber were scraped and migrated cells were fixed with crystal violet staining.

GST protein = GST protein (Schistosoma japonicum, UniProt P08515); assay: Fluorescence polarization (FP) binding assay, GST protein
Chain of GST protein (P08515 whole entry): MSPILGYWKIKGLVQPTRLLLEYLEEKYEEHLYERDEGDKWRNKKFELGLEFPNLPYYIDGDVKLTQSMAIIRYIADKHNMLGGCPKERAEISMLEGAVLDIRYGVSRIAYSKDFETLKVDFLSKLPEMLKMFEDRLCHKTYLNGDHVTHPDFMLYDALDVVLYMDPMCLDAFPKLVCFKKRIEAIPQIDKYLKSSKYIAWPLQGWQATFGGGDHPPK

NC(=O)CN1C[C@H](Cc2ccccc2)NC(=O)CN(C(=O)CCC(=O)O)C[C@H](CCC(=O)O)NC(=O)CN(C(=O)Cc2ccc3c(c2)OCO3)C[C@H](CCC(=O)O)NC(=O)CN(C(=O)CCC2CCCCC2)C[C@H](Cc2ccccc2)NC(=O)c2ccc(cc2)CSCCC1=O [C-84]
decrease in cell invasion (cell invasion): ~80%
decrease in cell migration (cell migration): around 70%

NC(=O)[C@H](CCCCNC(=S)Nc1ccc(-c2c3ccc(=O)cc-3oc3cc(O)ccc23)c(C(=O)O)c1)NC(=O)CN1C[C@H](Cc2ccccc2)NC(=O)CN(C(=O)CCC(=O)O)C[C@H](CCC(=O)O)NC(=O)CN(C(=O)Cc2ccc3c(c2)OCO3)C[C@H](CCC(=O)O)NC(=O)CN(C(=O)CCC2CCCCC2)C[C@H](Cc2ccccc2)NC(=O)c2ccc(cc2)CSCCC1=O [YS-D-44]
GST binding weaker than EphA2 binding (GST protein; Kd GST vs Kd EphA2): ~150 fold
Kd (GST protein; fluorescence polarization, 50 nM FITC labeled AApeptide, GST 0.3125 to 55 μM, read-out: binding affinity to GST protein, Kd): 12.3 µM
